Measured values as given in article PMC6332220, “Synthesis, Characterization and Biological Evaluation of Some Quinoxaline Derivatives: A Promising and Potent New Class of Antitumor and Antimicrobial Agents” (Molecules, 2015).
In brackets after ≈: the same amount, converted by molar mass.

Key:
[1] = tested on: Aspergillus flavus; assay: Disk diffusion, Aspergillus flavus; format: cell-based; settings: Fungi, 8.0 mm disks, 10 μL
Protocol: (§1) The disk diffusion method was used for determination of the antimicrobial activity using ampicillin, gentamicin and amphotericin B as reference drugs. The results were recorded for each compounds as the average diameter as inhibition zones (IZ) of bacterial or fungal growth around the discs in mm as shown in Table 2.
(§2) Antimicrobial activities were carried out against highly pathogenic strains; three strains of Gram positive bacteria (Bacillus subtilis, Staphylococcus aureus and Streptococcus faecalis), four strains of Gram negative bacteria (Escherichia coli, Neisseria gonorrhoeae, Pseudomonas aeruginosa and Salmonella typhimurium) and three fungi strains (Aspergillus flavus, Aspergillus fumigatus and Candida albicans) isolated from primary agar plates. Antimicrobial activity of the tested samples was determined using a modified Kriby-Bauer disk diffusion method. Briefly, 100 µL of the test bacteria/fungi were grown in 10 mL of fresh media until they reached a count approximately 10^8 cells/mL for bacteria or 10^5 cells/mL for fungi. 100 µL of microbial suspension was spread onto agar plates corresponding to the broth in which they were maintained. The inoculated plates of bacterial strains were incubated at 35–37 °C for 24–48 h, while the inoculated plates of fungal strains such as A. flavus and A. fumigatus were incubated at 25 °C for 48 h and yeast as C. albicans was incubated at 30 °C for 24–48 h.
(§3) The agar disk diffusion (qualitative) method was used in this investigation for determination of the preliminary antibacterial and antifungal activities. The agar used was Mueller-Hinton agar plates that are rigorously tested for composition and pH. Further the depth of the agar in the plate is a factor to be considered in the disk diffusion method.
(§4) Reference drugs: ampicillin was used as a standard antibacterial drug for Gram positive bacteria, gentamicin as a standard antibacterial drug for Gram negative bacteria and amphotericin B as antifungal standard drug.
(§5) Bacterial and fungal strains were spread onto the surface of the agar plates using sterile cotton swabs. For evaluation of antibacterial activities, blank paper disks (Schleicher & Schuell, Alicante, Spain) with a diameter of 8.0 mm were saturated with 10 μL of tested concentration of the stock solutions. Disks were dried and then placed onto inoculated agar plates. The plates of bacterial strains were reincubated at 35–37 °C for 24–48 h, while the plates of fungal strains such as A. flavus and A. fumigatus were reincubated at 25 °C for 48 h and yeast as C. albicans was reincubated at 30 °C for 24–48 h as mentioned above. […] For an accurate analysis, tests were run in triplicate for each strain to avoid any error as described in Table 2.
(§6) Disk diffusion method for filamentous fungi testing by using approved standard method (M02-A11) developed by the CLSI for evaluating the susceptibilities of filamentous fungi to antifungal agents. Disk diffusion method for yeasts developed by using approved standard method (M44-A2) by the CLSI [44]. Agar-based methods such as disk diffusion can be good alternatives because they are simpler and faster than broth-based methods.

[2] = tested on: SF-268 (CNS cancer); assay: In vitro cytotoxicity, SRB cell growth assay, SF-268; settings: Homo sapiens, SF-268, 48 h, read-out: IC50 (μg/mL) SF-268
Protocol: (§7) The in vitro cytotoxic activity of the newly synthesized compounds against human breast cell line (MCF7), non-small cell lung cancer NCIH460, CNS cancer SF-268 and WI 38 (normal fibroblast cells) were evaluated using doxorubicin as the reference drug according to the method reported by Skehan et al..
(§8) The newly synthesized compounds were evaluated in vitro against three human cancer cell lines; which are MCF-7 (breast adenocarcinoma), NCI-H460 (non-small cell lung cancer) and SF-268 (CNS cancer), and WI 38 (normal fibroblast cells) were used in this study. MCF-7 was obtained from the European Collection of Cell Cultures (ECACC, Salisbury, UK) but NCI-H460, SF-268 and WI 38 were kindly provided by the National Cancer Institute (NCI, Cairo, Egypt). They grow as monolayer and routinely maintained RPMI-1640 medium supplemented with 5% heat inactivated fetal bovine serum (FBS), 2 mM glutamine and antibiotics (penicillin 100 U/mL, streptomycin 100 µg/mL), at 37 °C in a humidified atmosphere containing 5% CO2. Exponentially growing cells were obtained by plating 1.5 × 10^5 cells/mL for MCF-7 and SF-268, and 0.75 × 10^4 cells/mL for NCI-H460 followed by 24 h of incubation. The effect of the vehicle solvent (DMSO) on the growth of these cell lines was evaluated in all experiments by exposing untreated control cells to the maximum concentration (0.5%) of DMSO used in each assay.
(§9) The effect of compounds on the in vitro growth of human tumor cell lines were evaluated according to the procedure adopted by the National Cancer Institute ([…]) in the “In vitro Anticancer Drug Discovery Screen” that uses the protein-binding dye sulforhodamine B (SRB) to assess cell growth. In the assay protocol, all cells were incubated at 37 °C under humidified atmosphere containing 5% CO2. Briefly, exponentially cells growing in 96-well plates were then exposed for 48 h to five serial concentrations of each compound, starting from a maximum concentration of 150 μg/mL. Following this exposure period adherent cells were fixed, washed and stained. The bound stain was solubilized and the absorbance was measured at 492 nm in a plate reader (Bio-Tek Instruments Inc., Power wave XS, Winston, NC, USA). For each test compound and cell line, a dose response curve was obtained and the inhibitory concentration of 50% (IC50), corresponding to the concentration of the compounds that inhibited 50% of the net cell growth was calculated as described elsewhere. Doxorubicin was used as a positive control and tested in the same manner.

[3] = tested on: NCI-H460 (non-small cell lung cancer); assay: In vitro cytotoxicity, SRB cell growth assay, NCI-H460; settings: Homo sapiens, NCI-H460, 48 h, read-out: IC50 (μg/mL) NCI-H460
Protocol: as §7, §8, §9

[4] = tested on: WI 38 (normal fibroblast cells); assay: In vitro cytotoxicity, SRB cell growth assay, normal cells WI 38; format: cell-based, human; settings: 48 h exposure, non-cytotoxic = IC50 >100 μg/mL
Protocol: as §7, §8, §9

[5] = tested on: Staphylococcus aureus; assay: Disk diffusion, Staphylococcus aureus; format: cell-based; settings: Gram positive, 8.0 mm disks, 10 μL
Protocol: as §1, §2, §3, §4, §5

[6] = tested on: Escherichia coli; assay: Disk diffusion, Escherichia coli; format: cell-based; settings: Gram negative, 8.0 mm disks, 10 μL
Protocol: as §1, §2, §3, §4, §5

[7] = tested on: MCF-7 (breast adenocarcinoma); assay: In vitro cytotoxicity, SRB cell growth assay, MCF-7; settings: Homo sapiens, MCF7, 48 h, read-out: IC50 (μg/mL) MCF-7
Protocol: as §7, §8, §9

[8] = tested on: Bacillus subtilis; assay: Disk diffusion, Bacillus subtilis; format: cell-based; settings: Gram positive, 8.0 mm disks, 10 μL
Protocol: as §1, §2, §3, §4, §5

[9] = tested on: Aspergillus fumigatus; assay: Disk diffusion, Aspergillus fumigatus; format: cell-based; settings: Fungi, 8.0 mm disks, 10 μL
Protocol: as §1, §2, §3, §4, §5, §6

[10] = tested on: Pseudomonas aeruginosa; assay: Disk diffusion, Pseudomonas aeruginosa; format: cell-based; settings: Gram negative, 8.0 mm disks, 10 μL
Protocol: as §1, §2, §3, §4, §5

[11] = tested on: Neisseria gonorrhoeae; assay: Disk diffusion, Neisseria gonorrhoeae; format: cell-based; settings: Gram negative, 8.0 mm disks, 10 μL
Protocol: as §1, §2, §3, §4, §5

[12] = tested on: Salmonella typhimurium; assay: Disk diffusion, Salmonella typhimurium; format: cell-based; settings: Gram negative, 8.0 mm disks, 10 μL
Protocol: as §1, §2, §3, §4, §5

[13] = tested on: Candida albicans; assay: Disk diffusion, Candida albicans; format: cell-based; settings: Fungi, 8.0 mm disks, 10 μL
Protocol: as §1, §2, §3, §4, §5, §6

[14] = tested on: Streptococcus faecalis; assay: Disk diffusion, Streptococcus faecalis; format: cell-based; settings: Gram positive, 8.0 mm disks, 10 μL
Protocol: as §1, §2, §3, §4, §5

Structure (SMILES) | Inhibition Zone Diameter (IZ) (mm) Aspergillus flavus [1] | IC50 [2] | IC50 [3] | IC50 ([4]; Homo sapiens, WI-38, 48 h) | Inhibition Zone Diameter (IZ) (mm) Staphylococcus aureus [5] | Inhibition Zone Diameter (IZ) (mm) Escherichia coli [6] | melting point | IC50 [7] | Inhibition Zone Diameter (IZ) (mm) Bacillus subtilis [8] | Inhibition Zone Diameter (IZ) (mm) Aspergillus fumigatus [9] | Inhibition Zone Diameter (IZ) (mm) Pseudomonas aeruginosa [10] | Inhibition Zone Diameter (IZ) (mm) Neisseria gonorrhoeae [11] | Inhibition Zone Diameter (IZ) (mm) Salmonella typhimurium [12] | Inhibition Zone Diameter (IZ) (mm) Candida albicans [13] | Inhibition Zone Diameter (IZ) (mm) Streptococcus faecalis [14] | IC50 (μg/mL) WI 38 [4]
Cc1cc(C)n(-c2nc3cc(Br)ccc3nc2Cl)n1 [Compound 6, 6-Bromo-2-chloro-3-(3,5-dimethyl-1H-pyrazol-1-yl)quinoxaline] | R (R (IZ = 0 mm)) | 26.5 ± 2.87 µg/mL (≈ 78.5 µM) | 30.5 ± 10.8 µg/mL (≈ 90.3 µM) | 28.2 ± 0.87 µg/mL (≈ 83.7 µM) | 9 mm | 11 mm | 81 to 83 °C | 22.4 ± 10.4 µg/mL (≈ 66.4 µM) | 11 mm | R (R (IZ = 0 mm)) | 9 mm | 11 mm | 8 mm | R (R (IZ = 0 mm)) | 11 mm | –
NNc1nc2cc(Br)ccc2n2nnnc12 [Compound 7, 7-Bromo-4-hydrazinyltetrazolo[1,5-a]quinoxaline] | R (R (IZ = 0 mm)) | 10.6 ± 2.83 µg/mL (≈ 38 µM) | 12.4 ± 3.01 µg/mL (≈ 44.3 µM) | – | 10 mm | 10 mm | 237 to 239 °C | 26.4 ± 2.1 µg/mL (≈ 94.3 µM) | 11 mm | R (R (IZ = 0 mm)) | 10 mm | 10 mm | 9 mm | R (R (IZ = 0 mm)) | 11 mm | non-cytotoxic
COc1cccc2c1C(=O)c1c(O)c3c(c(O)c1C2=O)C[C@@](O)(C(=O)CO)C[C@@H]3O[C@H]1C[C@H](N)[C@H](O)[C@H](C)O1 [Doxorubicin, reference compound] | – | 0.09 ± 0.007 µg/mL (≈ 0.166 µM) | 0.09 ± 0.008 µg/mL (≈ 0.166 µM) | – | – | – | – | 0.04 ± 0.008 µg/mL (≈ 0.0736 µM) | – | – | – | – | – | – | – | non-cytotoxic
C[C@@H]1[C@H](O)[C@@H](C)/C=C/C=C/C=C/C=C/C=C/C=C/C=C/[C@H](O[C@@H]2O[C@H](C)[C@@H](O)[C@H](N)[C@@H]2O)C[C@@H]2O[C@](O)(C[C@@H](O)C[C@@H](O)[C@H](O)CC[C@@H](O)C[C@@H](O)CC(=O)O[C@H]1C)C[C@H](O)[C@H]2C(=O)O [Amphotericin B, reference compound] | 17 mm | – | – | – | – | – | – | – | – | 23 mm | – | – | – | 19 mm | – | –
